Measured values from patent publication US20240390327A1, “THERAPEUTIC COMPOSITIONS AND METHODS” (Johns Hopkins University, priority 2021, published 2024).
“Also recorded” adds a separate entry of the source.

Tests used:
[1] = tested on: rats with PCL syndrome (LPS plus Poly IC); experiment: Nociception (mechanical allodynia, thermal hypersensitivity) in Post-COVID Like (PCL) model; format: in vivo, rat; conditions: chronic pain lasting greater than 2 months
Procedure: LPS (3 mg/kg ip) is given to prime the immune system of rats on postnatal (P) 45, 46 and P47. Subsequently, Poly IC (2, 3, or 5 mg/kg ip) is given on P55 to mimic a viral exposure. The response to these stimuli are studied in the following acute, subacute and chronic timepoints. Pain and activity in an open field are outcome measures we use routinely to track the development of the PCL syndrome.
For experimental design and development of pel syndrome with cognitive assessment, LPS (3 mg/kg ip) is given to prime the immune system of rats on postnatal (P) 45, 46 and P47. Subsequently, Poly IC (5 mg/kg ip) is given on P55 to mimic a viral exposure. The response to these stimuli are studied in the following acute, subacute and chronic timepoints. Pain and Activity in an Open Field are outcome measures we use routinely to track the development of the PCL syndrome. Similarly, Touchscreen cognitive assessment occurs simultaneously throughout the Acute, SubAcute and Chronic Phases. Using a touchscreen assessment platform, we first assess visual discrimination. We then assess cognitive flexibility through a test of reversal learning, and then a test of attention called 5 choice serial reaction (5CSRTT).
After priming the immune system with systemic lipopolysaccharide (LPS) on postnatal day 45-47, rats receive the viral mimetic poly(I:C) on P55.

CAM-IVH rats = experiment: Intra-aural distance (macrocephaly) in CAM-IVH model of PHHP; format: in vivo, rat; conditions: treatment P2-P10, followed through P21
Procedure: For each experiment with a statistical analysis, a power analysis was performed to estimate the required sample size (G*Power 3.1.9.3). We used preliminary and published data to estimate means and standard deviations for each group for the primary outcomes of intra-aural distance, ventriculomegaly, neurodevelopmental assessment, qPCR, and DTI analyses (Farkas et al., 2009; Yung et al., 2011; Baharnoori et al., 2012; Jantzie et al., 2014a,b, 2018; Robinson et al., 2016). Scanning electron microscopy qualitative analysis of EMC was set a priori as two per group. Primary endpoints were set a priori as described in the text, and were daily (P4-P15 and P21) for IAD and neurodevelopment, P5 for ventriculomegaly, P15 for periventricular YAP mRNA, and P21 for remaining assays. No animals were individually excluded except, as noted in the text, those who were removed prior to P21 due to poor health. DTI images from one rat were excluded due to poor image acquisition quality prior to quantification. Rats from both institutions and at least two separate litters were used for all experiments, except rats for SEM were prepared at one institution. Rats from both sexes were randomly assigned to injury (CAM versus sham at E18, IVH versus vehicle at P1) and to treatment group (EPO+MLT or vehicle on P2 for CAM-IVH rats). […]

rats with PCL syndrome = experiment: Diffusion tensor imaging in PCL model; format: in vivo, rat; conditions: 11.7T MRI
Procedure: Diffusion Tensor Imaging was performed on an 11.7T Bruker MRI scanner. These images were processed to assign directional colors ([…] transverse, blue vertical, and green orthogonal to the plane).

naïve rats = experiment: EPO+MLT regimen in naïve neonatal rats, unanticipated effects; format: in vivo, rat; conditions: doses administered the same time of day
Procedure: To test if EPO+MLT could prevent the onset of PHHP, on P2 CAM+IVH rats were randomized to receive either EPO+MLT or vehicle from P2 (equivalent to approximately 32 weeks human gestation) to P10 (full term in humans). Six doses of EPO (2500 U/kg/dose i.p.) or vehicle were administered on P2-P5, P7 and P9. Nine doses of MLT (20 mg/kg/dose i.p.) or vehicle were administered on P2-P10. A subset of 36 CAM-IVH pups were randomized to receive vehicle, EPO alone, MLT alone, or EPO+MLT to test impact of treatment on macrocephaly. […] To determine if EPO+MLT had any unanticipated effect on normal neurodevelopment, a set of naïve pups underwent EPO+MLT treatment.
Neurodevelopmental battery included nine tests (surface righting, negative geotaxis, cliff aversion, forelimb grasp, audio startle, eye opening, ear twitch, forelimb placement, and air righting) (Farkas et al., 2009; Bahamoori et al., 2012). Since no differences with audio startle or eye opening were noted across groups, these two tests were not included for naïve rats. Observers blinded to injury and treatment group tested 146 rats each day from P4 to P15, and then at P21.
To determine if the progressive macrocephaly and poor cliff aversion performance observed in CAM-IVH rats was preventable, we assessed the efficacy of combined EPO+MLT treatment in the neonatal period in a separate cohort of rats (n=88). […]

PBMCs = experiment: PBMC secretome after buprenorphine stimulation in culture; conditions: P21 PBMCs, 3 h culture; EPO 10 U/mL + MLT 20 μM; naloxone 10 μM
[2] = tested on: patients (adult traumatic brain injury; pediatric and neonatal trials); conditions: cited from earlier work
[3] = tested on: rats with prenatal injury (TSHI plus intra-amniotic LPS); experiment: Open field after prenatal injury (chorioamnionitis model of cerebral palsy); format: in vivo, rat; conditions: P28-P30 open field
Description: As placental structure and function is of significant clinical importance to neurologic sequelae in preterm survivors (59-61), we use a prenatal model of in utero transient systemic HI (TSHI) and intra-amniotic lipopolysaccharide (LPS) administration in pregnant rats (62-64). This approach capitalizes on an intact maternal-placental-fetal unit and is a model of PBI from extreme preterm birth (<28 weeks of gestation) that mimics dual intrauterine injury from placental underperfusion and chorioamnionitis (65). Briefly, under isoflurane anesthesia, a laparotomy is performed on embryonic day (E) 18. Uterine arteries are clamped for 60 min and followed by intra-amniotic injections of LPS (4 μg/sac; 0111:B4, Sigma, St. Louis, MO, USA) (62, 64, 65). Sham controls undergo anesthesia and laparotomy for 60 min without arterial clamping or LPS injections. Following closure of the laparotomy, dams receive narcotic pain medication, recover, and pups are born vaginally at E22, approximately equal to 30-32 weeks in human gestation. We have previously reported the effects of TSHI and LPS alone, and in concert, on CNS pathological hallmarks, functional motor outcomes, histologic placental injury, and expression of common pro-inflammatory cytokines (63, 64).
When EPO was administered in isolation, it was given from P1 to P5 at 2,000 U/kg/dose as previously published (47, 48, 54, 55, 71, 72). […]

Molecule | chronic thermal hypersensitivity [1] | intra-aural distance (IAD), progressive macrocephaly (CAM-IVH rats) | white matter microstructural integrity (directional color DTI) (rats with PCL syndrome) | impact on the circadian rhythm (naïve rats) | secretion of interferon gamma and IL-6 by PBMCs treated with buprenorphine (PBMCs) | adverse events in pediatric and neonatal EPO trials ([2]; high-dose, extended EPO regimens) | adverse events in meta-analyses of EPO for severe adult traumatic brain injury ([2]; versus placebo) | disinhibition (open field) [3]
COc1ccc2[nH]cc(CCNC(C)=O)c2c1 [MLT, N-acetyl-5-methoxytryptamine] | neither ROX nor MLT alone | the IADs were not significantly different compared littermates that received vehicle | the microstructural integrity is altered and the colors are muted | no impact was evident |  |  |  | 
C=CCN1CC[C@]23c4c5ccc(O)c4O[C@H]2C(=O)CC[C@@]3(O)[C@H]1C5 [naloxone] |  |  |  |  | blocked the secretion of these proinflammatory mediators |  |  | 
EPO: erythropoietin compound or erythropoietin, in particular human recombinant erythropoietin |  | the IADs were not significantly different compared littermates that received vehicle |  |  |  | no adverse events have emerged with high-dose, extended EPO regimens in neonatal trials | no adverse events were evident compared to placebo treatment | does not; also recorded: did not improve disinhibition
